Measured values taken from patent US20240002342A1, “HERBICIDAL DERIVATIVES” (SYNGENTA CROP PROTECTION AG, priority 2020, published 2024).

Assays:
Assay type in all cases: in vivo
[1] = system: Ipomoea hederacea (IPOHE); assay: Pre-emergence herbicidal test; settings: 1000 g/ha unless otherwise stated
Setaria faberi (SETFA) [2] = assay: Pre-emergence herbicidal test; settings: 1000 g/ha unless otherwise stated
Lolium perenne (LOLPE) [3] = assay: Pre-emergence herbicidal test; settings: 1000 g/ha unless otherwise stated
[4] = system: Ipomoea hederacea (IPOHE); assay: Post-emergence herbicidal test; settings: 1000 g/ha unless otherwise stated, evaluated after 13 days
Method: (§1) Seeds of a variety of test species are sown in standard soil in pots (Amaranthus retoflexus (AMARE), Solanum nigrum (SOLNI), Setaria faberi (SETFA), Lolium perenne (LOLPE), Echinochloa crus-galli (ECHCG), Ipomoea hederacea (IPOHE)). After 8 days cultivation under controlled conditions in a glasshouse (at 24° C./16° C., day/night; 14 hours light; 65% humidity), the plants are sprayed with an aqueous spray solution derived from the formulation of the technical active ingredient in acetone/water (50:50) solution containing 0.5% Tween 20 (polyoxyethelyene sorbitan monolaurate, CAS RN 9005-64-5). Compounds are applied at 1000 g/ha unless otherwise stated. The test plants are then grown in a glasshouse under controlled conditions in a glasshouse (at 24° C./16° C., day/night; 14 hours light; 65% humidity) and watered twice daily. After 13 days the test is evaluated for the percentage damage caused to the plant. The biological activities are shown in the following table on a five-point scale (5=81-100%; 4=61-80%; 3=41-60%; 2=21-40%; 1=0-20%).

Setaria faberi (SETFA) [5] = assay: Post-emergence herbicidal test; settings: 1000 g/ha unless otherwise stated, evaluated after 13 days
Method: as §1

Lolium perenne (LOLPE) [6] = assay: Post-emergence herbicidal test; settings: 1000 g/ha unless otherwise stated, evaluated after 13 days
Method: as §1

Solanum nigrum (SOLNI) [7] = assay: Post-emergence herbicidal test; settings: 1000 g/ha unless otherwise stated, evaluated after 13 days
Method: as §1

[8] = system: Amaranthus retoflexus (AMARE); assay: Post-emergence herbicidal test; settings: 1000 g/ha unless otherwise stated, evaluated after 13 days
Method: as §1

[9] = system: Echinochloa crus-galli (ECHCG); assay: Post-emergence herbicidal test; settings: 1000 g/ha unless otherwise stated, evaluated after 13 days
Method: as §1

[10] = system: Echinochloa crus-galli (ECHCG); assay: Pre-emergence herbicidal test; settings: 1000 g/ha unless otherwise stated
Solanum nigrum (SOLNI) [11] = assay: Pre-emergence herbicidal test; settings: 1000 g/ha unless otherwise stated
[12] = system: Amaranthus retoflexus (AMARE); assay: Pre-emergence herbicidal test; settings: 1000 g/ha unless otherwise stated

Structure (SMILES)	percentage damage caused to the plant, IPOHE (five-point scale) [1]	percentage damage caused to the plant, SETFA (five-point scale) (Setaria faberi (SETFA) [2])	percentage damage caused to the plant, LOLPE (five-point scale) (Lolium perenne (LOLPE) [3])	percentage damage caused to the plant, IPOHE (five-point scale) [4]	percentage damage caused to the plant, SETFA (five-point scale) (Setaria faberi (SETFA) [5])	percentage damage caused to the plant, LOLPE (five-point scale) (Lolium perenne (LOLPE) [6])	percentage damage caused to the plant, SOLNI (five-point scale) (Solanum nigrum (SOLNI) [7])	percentage damage caused to the plant, AMARE (five-point scale) [8]	percentage damage caused to the plant, ECHCG (five-point scale) [9]	percentage damage caused to the plant, ECHCG (five-point scale) [10]	percentage damage caused to the plant, SOLNI (five-point scale) (Solanum nigrum (SOLNI) [11])	percentage damage caused to the plant, AMARE (five-point scale) [12]
C=Cc1c(C)n(CC)c(-c2ccc(Cl)c(Cl)c2)c(C(=O)O)c1=O [Compound 2.001, 2-(3,4-dichlorophenyl)-1-ethyl-6-methyl-4-oxo-5-vinyl-pyridine-3-carboxylic acid]	3 (3=41-60%)	4 (4=61-80%)	4 (4=61-80%)	4 (4=61-80%)	4 (4=61-80%)	4 (4=61-80%)	1 (1=0-20%)	1 (1=0-20%)	2 (2=21-40%)	3 (3=41-60%)	1 (1=0-20%)	1 (1=0-20%)
C#Cc1c(C)n(CC)c(-c2ccc(Cl)c(Cl)c2)c(C(=O)O)c1=O [Compound 2.005, 2-(3,4-dichlorophenyl)-1-ethyl-5-ethynyl-6-methyl-4-oxo-pyridine-3-carboxylic acid]	4 (4=61-80%)	4 (4=61-80%)	1 (1=0-20%)	4 (4=61-80%)	5 (5=81-100%)	5 (5=81-100%)	4 (4=61-80%)	5 (5=81-100%)	3 (3=41-60%)	1 (1=0-20%)	4 (4=61-80%)	1 (1=0-20%)
CCn1c(C)c(C(C)=O)c(=O)c(C(=O)O)c1-c1ccc(Cl)c(Cl)c1 [Compound 2.008, 5-acetyl-2-(3,4-dichlorophenyl)-1-ethyl-6-methyl-4-oxo-pyridine-3-carboxylic acid]	3 (3=41-60%)	5 (5=81-100%)	4 (4=61-80%)	2 (2=21-40%)	3 (3=41-60%)	5 (5=81-100%)	2 (2=21-40%)	2 (2=21-40%)	3 (3=41-60%)	3 (3=41-60%)	3 (3=41-60%)	1 (1=0-20%)
CCn1c(C)c(C(=O)O)c(=O)c(C(=O)O)c1-c1ccc(Cl)c(Cl)c1 [Compound 2.010, 2-(3,4-dichlorophenyl)-1-ethyl-6-methyl-4-oxo-pyridine-3,5-dicarboxylic acid]	1 (1=0-20%)	1 (1=0-20%)	2 (2=21-40%)	2 (2=21-40%)	1 (1=0-20%)	1 (1=0-20%)	2 (2=21-40%)	2 (2=21-40%)	1 (1=0-20%)	1 (1=0-20%)	3 (3=41-60%)	1 (1=0-20%)
C=Cc1c(C)n(CC)c(-c2ccc(Cl)c(Cl)c2)c(C(=O)OC)c1=O [Compound 4.001, methyl 2-(3,4-dichlorophenyl)-1-ethyl-6-methyl-4-oxo-5-vinyl-pyridine-3-carboxylate]	1 (1=0-20%)	1 (1=0-20%)	1 (1=0-20%)	2 (2=21-40%)	4 (4=61-80%)	4 (4=61-80%)	1 (1=0-20%)	1 (1=0-20%)	1 (1=0-20%)	1 (1=0-20%)	1 (1=0-20%)	1 (1=0-20%)
